From patent US9695155B2, “Herbicidal substituted pyrimidinyloxy benzene compounds” (E. I. DU PONT DE NEMOURS AND COMPANY, priority 2013, dated 2017)

What was measured:
Test in all cases: Test E preemergence
dayflower = format: in vivo, Commelina virginica; settings: for Dayflower, VA plant response rating: scale 0 to 100 (0 no effect, 100 complete control); for Plant response rating, Dayflower, VA: scale 0 to 100, 0 no effect, 100 complete control
How it was run: (§1)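 Compound in a non-phytotoxic solvent mixture with surfactant was applied preemergence to seeds in silt loam soil, or postemergence to plants 2 to 18 cm tall grown in peat-based potting medium. Plants were kept in a greenhouse for 14 to 21 days, then rated visually against untreated controls on a 0 (no effect) to 100 (complete control) scale.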

Brazilian crabgrass = format: in vivo, Digitaria horizontalis; settings: for Crabgrass, Brazil plant response rating: scale 0 to 100 (0 no effect, 100 complete control); for Plant response rating, Crabgrass, Brazil: scale 0 to 100, 0 no effect, 100 complete control
How it was run: as §1

arrowleaf sida = format: in vivo, Sida rhombifolia; settings: for Arrowleaf Sida plant response rating: scale 0 to 100 (0 no effect, 100 complete control); for Plant response rating, Arrowleaf Sida: scale 0 to 100, 0 no effect, 100 complete control
How it was run: as §1

wild poinsettia = format: in vivo, Euphorbia heterophylla; settings: for Poinsettia, Wild plant response rating: scale 0 to 100 (0 no effect, 100 complete control); for Plant response rating, Poinsettia, Wild: scale 0 to 100, 0 no effect, 100 complete control
Excerpt: (§2) Seeds of plant species selected from corn (Zea mays), soybean (Glycine max), velvetleaf (Abutilon theophrasti), lambsquarters (Chenopodium album), wild poinsettia (Euphorbia heterophylla), palmer pigweed (Amaranthus palmeri), waterhemp (common waterhemp, Amaranthus rudis), surinam grass (Brachiaria decumbens), large (Lg) crabgrass (Digitaria sanguinalis), Brazilian crabgrass (Digitaria horizontalis), fall panicum (Panicum dichotomiflorum), giant foxtail (Setaria faberii), green foxtail (Setaria viridis), goosegrass (Eleusine indica), johnsongrass (Sorghum halepense), ragweed (common ragweed, Ambrosia elatior), barnyardgrass (Echinochloa crus-galli), sandbur (southern sandbur, Cenchrus echinatus), arrowleaf sida (Sida rhombifolia), Italian ryegrass (Lolium multiflorum), dayflower (Virginia (VA) dayflower, Commelina virginica), field bindweed (Convolvulus arvensis), morningglory (Ipomoea coccinea), nightshade (eastern black nightshade, Solanum ptycanthum), kochia (Kochia scoparia), yellow nutsedge (Cyperus esculentus), cocklebur (common cocklebur, Xanthium strumarium), smartweed (ladysthumb smartweed, and hairy beggarticks (Bidens pilosa), were planted into a silt loam soil and treated preemergence with test chemicals formulated in a non-phytotoxic solvent mixture which included a surfactant.
(§3) At the same time, plants from these crop and weed species and also horseweed (Canada horseweed, Conyza canadensis), waterhemp_RES1, (ALS & Triazine resistant common waterhemp, Amaranthus rudis), and waterhemp_RES2, (ALS & HPPD resistant common waterhemp, Amaranthus rudis) were planted in pots containing Redi-Earth® planting medium (Scotts Company, 14111 Scottslawn Road, Marysville, Ohio 43041) comprising spaghnum peat moss, vermiculite, wetting agent and starter nutrients were treated with postemergence applications of test chemicals formulated in the same manner. Plants ranged in height from 2 to 18 cm for postemergence treatments (1- to 4-leaf stage). Treated plants and controls were maintained in a greenhouse for 14 to 21 days, after which time all species were compared to controls and visually evaluated. Plant response ratings, summarized in Table E, are based on a scale of 0 to 100 where 0 is no effect and 100 is complete control. A dash (-) response means no test result.

nightshade = format: in vivo, Solanum ptycanthum; settings: for Nightshade plant response rating: scale 0 to 100 (0 no effect, 100 complete control); for Plant response rating, Nightshade: scale 0 to 100, 0 no effect, 100 complete control
How it was run: as §1

hairy beggarticks = format: in vivo, Bidens pilosa; settings: for Beggarticks plant response rating: scale 0 to 100 (0 no effect, 100 complete control); for Plant response rating, Beggarticks: scale 0 to 100, 0 no effect, 100 complete control
How it was run: as §1

johnsongrass = format: in vivo, Sorghum halepense; settings: for Johnsongrass plant response rating: scale 0 to 100 (0 no effect, 100 complete control); for Plant response rating, Johnsongrass: scale 0 to 100, 0 no effect, 100 complete control
How it was run: as §1

field bindweed = format: in vivo, Convolvulus arvensis; settings: for Field Bindweed plant response rating: scale 0 to 100 (0 no effect, 100 complete control); for Plant response rating, Field Bindweed: scale 0 to 100, 0 no effect, 100 complete control
Excerpt: as §2, §3

velvetleaf = format: in vivo, Abutilon theophrasti; settings: for Velvetleaf plant response rating: scale 0 to 100 (0 no effect, 100 complete control); for Plant response rating, Velvetleaf: scale 0 to 100, 0 no effect, 100 complete control
How it was run: as §1

kochia = format: in vivo, Kochia scoparia; settings: for Kochia plant response rating: scale 0 to 100 (0 no effect, 100 complete control); for Plant response rating, Kochia: scale 0 to 100, 0 no effect, 100 complete control
How it was run: as §1

## N#Cc1cccc(Oc2ncc(F)cn2)c1-n1cc(Cl)cn1 [Compound 73]
dayflower; 16 g ai/ha
  Dayflower, VA plant response rating: 0
dayflower; 31 g ai/ha
  Dayflower, VA plant response rating: 0
dayflower; 62 g ai/ha
  Dayflower, VA plant response rating: 25
dayflower; 125 g ai/ha
  Plant response rating, Dayflower, VA: 65
dayflower; 250 g ai/ha
  Plant response rating, Dayflower, VA: 95
Brazilian crabgrass; 16 g ai/ha
  Crabgrass, Brazil plant response rating: 25
Brazilian crabgrass; 31 g ai/ha
  Crabgrass, Brazil plant response rating: 95
Brazilian crabgrass; 62 g ai/ha
  Crabgrass, Brazil plant response rating: 100
Brazilian crabgrass; 125 g ai/ha
  Plant response rating, Crabgrass, Brazil: 100
Brazilian crabgrass; 250 g ai/ha
  Plant response rating, Crabgrass, Brazil: 100
Arrowleaf sida; 16 g ai/ha, preemergence
  Arrowleaf Sida plant response rating: 5
Arrowleaf sida; 31 g ai/ha, preemergence
  Arrowleaf Sida plant response rating: 40
Arrowleaf sida; Preemergence, 62 g ai/ha
  Plant response rating, Arrowleaf Sida: 80
Arrowleaf sida; preemergence, 125 g ai/ha
  Plant response rating, Arrowleaf Sida: 100
Arrowleaf sida; preemergence, 250 g ai/ha
  Plant response rating, Arrowleaf Sida: 100
Wild poinsettia; 16 g ai/ha
  Poinsettia, Wild plant response rating: 0
Wild poinsettia; 31 g ai/ha
  Poinsettia, Wild plant response rating: 30
Wild poinsettia; 62 g ai/ha
  Poinsettia, Wild plant response rating: 35
Wild poinsettia; 125 g ai/ha
  Plant response rating, Poinsettia, Wild: 65
Wild poinsettia; 250 g ai/ha
  Plant response rating, Poinsettia, Wild: 85
nightshade; 16 g ai/ha
  Nightshade plant response rating: 65
nightshade; 31 g ai/ha
  Nightshade plant response rating: 80
nightshade; 62 g ai/ha
  Nightshade plant response rating: 90
nightshade; 125 g ai/ha
  Plant response rating, Nightshade: 98
nightshade; 250 g ai/ha
  Plant response rating, Nightshade: 100
Hairy beggarticks; 16 g ai/ha, preemergence
  Beggarticks plant response rating: 5
Hairy beggarticks; 31 g ai/ha, preemergence
  Beggarticks plant response rating: 5
Hairy beggarticks; Preemergence, 62 g ai/ha
  Plant response rating, Beggarticks: 20
Hairy beggarticks; preemergence, 125 g ai/ha
  Plant response rating, Beggarticks: 50
Hairy beggarticks; preemergence, 250 g ai/ha
  Plant response rating, Beggarticks: 75
johnsongrass; 16 g ai/ha
  Johnsongrass plant response rating: 0
johnsongrass; 31 g ai/ha
  Johnsongrass plant response rating: 20
johnsongrass; 62 g ai/ha
  Johnsongrass plant response rating: 20
johnsongrass; 125 g ai/ha
  Plant response rating, Johnsongrass: 35
johnsongrass; 250 g ai/ha
  Plant response rating, Johnsongrass: 85
Field bindweed; 16 g ai/ha
  Field Bindweed plant response rating: 0
Field bindweed; 31 g ai/ha
  Field Bindweed plant response rating: 15
Field bindweed; 62 g ai/ha
  Field Bindweed plant response rating: 50
Field bindweed; 125 g ai/ha
  Plant response rating, Field Bindweed: 75
Field bindweed; 250 g ai/ha
  Plant response rating, Field Bindweed: 85
velvetleaf; 16 g ai/ha
  Velvetleaf plant response rating: 0
velvetleaf; 31 g ai/ha
  Velvetleaf plant response rating: 20
velvetleaf; 62 g ai/ha
  Velvetleaf plant response rating: 60
velvetleaf; 125 g ai/ha
  Plant response rating, Velvetleaf: 70
velvetleaf; 250 g ai/ha
  Plant response rating, Velvetleaf: 95
kochia; 16 g ai/ha
  Kochia plant response rating: 5
kochia; 31 g ai/ha
  Kochia plant response rating: 75
kochia; 62 g ai/ha
  Kochia plant response rating: 98
kochia; 125 g ai/ha
  Plant response rating, Kochia: 98
kochia; 250 g ai/ha
  Plant response rating, Kochia: 100

## N#Cc1cnn(-c2c(C#N)cccc2Oc2ncc(F)cn2)c1 [Compound 111]
dayflower; 16 g ai/ha
  Dayflower, VA plant response rating: 0
dayflower; 31 g ai/ha
  Dayflower, VA plant response rating: 0
dayflower; 62 g ai/ha
  Dayflower, VA plant response rating: 20
dayflower; 125 g ai/ha
  Plant response rating, Dayflower, VA: 20
Brazilian crabgrass; 16 g ai/ha
  Crabgrass, Brazil plant response rating: 0
Brazilian crabgrass; 31 g ai/ha
  Crabgrass, Brazil plant response rating: 30
Brazilian crabgrass; 62 g ai/ha
  Crabgrass, Brazil plant response rating: 75
Brazilian crabgrass; 125 g ai/ha
  Plant response rating, Crabgrass, Brazil: 100
Arrowleaf sida; 16 g ai/ha, preemergence
  Arrowleaf Sida plant response rating: 40
Arrowleaf sida; 31 g ai/ha, preemergence
  Arrowleaf Sida plant response rating: 50
Arrowleaf sida; Preemergence, 62 g ai/ha
  Plant response rating, Arrowleaf Sida: 70
Arrowleaf sida; preemergence, 125 g ai/ha
  Plant response rating, Arrowleaf Sida: 98
Wild poinsettia; 16 g ai/ha
  Poinsettia, Wild plant response rating: 15
Wild poinsettia; 31 g ai/ha
  Poinsettia, Wild plant response rating: 30
Wild poinsettia; 62 g ai/ha
  Poinsettia, Wild plant response rating: 70
Wild poinsettia; 125 g ai/ha
  Plant response rating, Poinsettia, Wild: 85
nightshade; 16 g ai/ha
  Nightshade plant response rating: 65
nightshade; 31 g ai/ha
  Nightshade plant response rating: 50
nightshade; 62 g ai/ha
  Nightshade plant response rating: 80
nightshade; 125 g ai/ha
  Plant response rating, Nightshade: 95
Hairy beggarticks; 16 g ai/ha, preemergence
  Beggarticks plant response rating: 20
Hairy beggarticks; 31 g ai/ha, preemergence
  Beggarticks plant response rating: 30
Hairy beggarticks; Preemergence, 62 g ai/ha
  Plant response rating, Beggarticks: 60
Hairy beggarticks; preemergence, 125 g ai/ha
  Plant response rating, Beggarticks: 80
johnsongrass; 16 g ai/ha
  Johnsongrass plant response rating: 0
johnsongrass; 31 g ai/ha
  Johnsongrass plant response rating: 0
johnsongrass; 62 g ai/ha
  Johnsongrass plant response rating: 15
johnsongrass; 125 g ai/ha
  Plant response rating, Johnsongrass: 70
Field bindweed; 16 g ai/ha
  Field Bindweed plant response rating: 15
Field bindweed; 31 g ai/ha
  Field Bindweed plant response rating: 15
Field bindweed; 62 g ai/ha
  Field Bindweed plant response rating: 60
Field bindweed; 125 g ai/ha
  Plant response rating, Field Bindweed: 80
velvetleaf; 16 g ai/ha
  Velvetleaf plant response rating: 5
velvetleaf; 31 g ai/ha
  Velvetleaf plant response rating: 10
velvetleaf; 62 g ai/ha
  Velvetleaf plant response rating: 60
velvetleaf; 125 g ai/ha
  Plant response rating, Velvetleaf: 75
kochia; 16 g ai/ha
  Kochia plant response rating: 0
kochia; 31 g ai/ha
  Kochia plant response rating: 10
kochia; 62 g ai/ha
  Kochia plant response rating: 95
kochia; 125 g ai/ha
  Plant response rating, Kochia: 95
